Measurements reported in patent publication US7238689B2, “Isoxazoline derivative and herbicide comprising the same as active ingredient” (Ihara Chemical Industry Co., Ltd., priority 2001, dated 2007).

What was measured:
Format in all cases: in vivo
Parameters in all cases: scale not given here
[1] = tested on: Echinochloa crus-galli (L.) Beauv. var. crusgalli; experiment: Herbicidal effect by upland field soil treatment; details: active ingredient 1000 g/ha, examined at 21st day from treatment
Source text: (§1) An upland field soil was filled in a plastic pot of 80 cm^2. Seeds of Echinochloa crus-galli (L.) Beauv. var. crusgalli and Setaria viridis (L.) Beauv. were sowed, followed by covering with the same soil. […] Then, breeding was made in a greenhouse, and the herbicidal effect of each wettable powder was examined at the 21st day from the treatment in accordance with the standard shown in Table 21.

[2] = tested on: Setaria viridis (L.) Beauv.; experiment: Herbicidal effect by upland field soil treatment; details: active ingredient 1000 g/ha, examined at 21st day from treatment
Source text: as §1

[3] = tested on: Echinochloa crus-galli (L.) Beauv. var. crus-galli; experiment: Herbicidal effect by upland foliage treatment; details: active ingredient 1000 g/ha, examined at 14th day from treatment
Protocol: (§2) A sand was filled in a plastic pot of 80 cm^2. Seeds of Echinochloa crus-galli (L.) Beauv. var. crus-galli and Setaria viridis (L.) Beauv. were sowed. Breeding was made in a greenhouse for 2 weeks. Wettable powders produced in accordance with the Formulation 1 were diluted with water and sprayed on the whole foliage of plants from above the plants using a small sprayer in an amount of 1,000 liters per 1 hectare so that the amount of each active ingredient became 1,000 g per 1 hectare. Then, breeding was made in the greenhouse, and the herbicidal effect of each wettable powder was examined at the 14th day from the treatment in accordance with the standard shown in Table 21.

[4] = tested on: Setaria viridis (L.) Beauv.; experiment: Herbicidal effect by upland foliage treatment; details: active ingredient 1000 g/ha, examined at 14th day from treatment
Protocol: as §2

[5] = tested on: Echinochloa oryzicola Vasing; experiment: Herbicidal effect by paddy field soil treatment; details: wettable powder, active ingredient 1000 g/ha, examined at the 21st day from the treatment
Outline: (§3)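 Seeds sown in puddled paddy soil under 3 cm of water; the next day wettable powders diluted in water were dropped onto the water surface at 1,000 g active ingredient/ha. Plants grown in a greenhouse, with herbicidal effect scored on day 21 against a rating standard.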

[6] = tested on: Monochoria vaginalis (Murm. f.) Presl var. plantaginea (Roxb.) Solms-Laub.; experiment: Herbicidal effect by paddy field soil treatment; details: wettable powder, active ingredient 1000 g/ha, examined at the 21st day from the treatment
Outline: as §3

Row | Compound | herbicidal effect (index per standard of Table 21), Echinochloa curs-galli (L.) Beauv. Var. crus-galli [1] | herbicidal effect (index per standard of Table 21), Setaria viridis (L.) Beauv. [2] | herbicidal effect (index per standard of Table 21), Echinochloa curs-galli (L.) Beauv. Var. crus-galli [3] | herbicidal effect (index per standard of Table 21), Setaria viridis (L.) Beauv. [4] | Herbicidal effect index, Echinochloa oryzicola Vasing [5] | Herbicidal effect index, Monochoria vaginalis (Burm. F.) Presl var. plantaginea (Roxb.) Solms-Laub. [6]
1 | 5,5-dimethyl-[(4-methoxy-6-trifluoromethylpyrimidin-5-yl)-methylsulfonyl]-2-isoxazoline [8-0001] | 5 | 5 | 5 | 4 | 5 | 5
2 | Cc1ccsc1CS(=O)(=O)C1=NOC(C)(C)C1 [1-0001] | 5 | 5 | 5 | 4 | 5 | 5
3 | CC1(C)CC(S(=O)(=O)Cc2sccc2Cl)=NO1 [1-0004] | 5 | 5 | 5 | 4 | 5 | 5
4 | CC1(C)CC(S(=O)(=O)Cc2ccsc2)=NO1 [2-0003] | 5 | 5 | 5 | 4 | 5 | 5
5 | COc1cscc1CS(=O)(=O)C1=NOC(C)(C)C1 [2-0004] | 5 | 5 | 5 | 4 | 5 | 5
6 | CC(=O)c1c(C)sc(C)c1CS(=O)(=O)C1=NOC(C)(C)C1 [2-0008] | 5 | 5 | 5 | 5 | 5 | 5
7 | COC(=O)c1c(Cl)sc(Cl)c1CS(=O)(=O)C1=NOC(C)(C)C1 [2-0011] | 5 | 4 | 5 | 4 | 5 | 5
8 | Cn1ncc(CS(=O)(=O)C2=NOC(C)(C)C2)c1Cl [3-0035] | 5 | 5 | 4 | 4 | 5 | 5
9 | Cc1nn(C)c(C)c1CS(=O)(=O)C1=NOC(C)(C)C1 [3-0036] | 5 | 5 | 4 | 4 | – | –
10 | Cc1nn(C)c(Cl)c1CS(=O)(=O)C1=NOC(C)(C)C1 [3-0037] | 5 | 5 | 5 | 4 | 5 | 5
11 | Cn1nc(Cl)c(CS(=O)(=O)C2=NOC(C)(C)C2)c1Cl [3-0038] | 5 | 5 | 5 | 5 | 5 | 5
12 | Cn1nc(C(F)(F)F)c(CS(=O)(=O)C2=NOC(C)(C)C2)c1Cl [3-0039] | 5 | 5 | 5 | 5 | 5 | 5
13 | CCOc1c(CS(=O)(=O)C2=NOC(C)(C)C2)c(C(F)(F)F)nn1C [3-0044] | 5 | 5 | 5 | 4 | 5 | 5
14 | Cn1nc(C(F)(F)F)c(CS(=O)(=O)C2=NOC(C)(C)C2)c1OC1CCCCC1 [3-0049] | 5 | 5 | 4 | 4 | 5 | 5
15 | CCn1nc(C(F)(F)F)c(CS(=O)(=O)C2=NOC(C)(C)C2)c1Cl [3-0073] | 5 | 5 | 5 | 4 | 5 | 5
16 | C=CCn1nc(Cl)c(CS(=O)(=O)C2=NOC(C)(C)C2)c1C(F)(F)F [3-0105] | – | – | 5 | 4 | – | –
17 | C#CCn1nc(C(F)(F)F)c(CS(=O)(=O)C2=NOC(C)(C)C2)c1Cl [3-0106] | – | – | 5 | 4 | – | –
18 | C#CCn1nc(Cl)c(CS(=O)(=O)C2=NOC(C)(C)C2)c1C(F)(F)F [3-0107] | – | – | 5 | 5 | – | –
